Assay results from PubChem BioAssay AID179 (DTP/NCI, 2004).
The source made the active and inactive calls.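 The calls were made as follows: active = compounds giving half or more protection of infected cells from virus-caused growth loss, again on retest; inactive = the rest.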

Test system: CEM cells HIV-1 protection, formazan growth assay
Assay: NCI AIDS Antiviral Assay
Settings: for IC50: measured here: growth of uninfected CEM cells
In short: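 Soluble formazan readout of cell growth; CEM cells ± HIV-1; 5 drug concs. ≥50% protection → retest; ≥50% again = moderately active; reproducible 100% = confirmed active.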

SMILES | EC50 | IC50 | outcome
CN1c2ccccc2N(C(=O)c2ccccc2)C(CC(=O)O)c2cccn21 (centres undefined) | > 692 µM | 288 µM | 
OCCN(CCO)c1cc(Cl)c(Cl)cc1Cl | > 200 µM | 35.5 µM | 
NNC(=O)C1C(C(=O)NN)C2C3C=CC(C4C(=O)NC(=O)C34)C12 (centres undefined) | > 200 µM | > 200 µM | 
O=C(Nc1c(C(=O)NC2CCCCC2)[nH]c(=O)[nH]c1=O)c1ccc(Cl)cc1 |  |  | inactive
COC(=O)CC(c1ccccc1)C1(c2ccccc2)SCCS1 (centres undefined) | > 7.94 µM | > 7.94 µM | 
CCOc1ccc(NC(=S)/N=C/c2c(O)cc(C)oc2=O)cc1 |  |  | inactive
COc1ccc(OC2OC(CO)C(O)C(O)C2O)cc1 (centres undefined) | > 200 µM | > 200 µM | 
CC(=O)NNc1nc(C)c(C(=O)/C=C/c2cccc([N+](=O)[O-])c2)s1 | 70.8 µM | 75.9 µM | 
Cc1oc2c(c1C)S(=O)(=O)C(C#N)=C(c1ccccc1)N2 | > 200 µM | > 200 µM | 
COC(=O)/C(=C(\C)C=O)N1C(=O)C(NC(=O)c2ccccc2)C1SSc1nc2ccccc2s1 (centres undefined) | > 200 µM | 12.9 µM | 
O=[N+]([O-])c1nccn1CCC[n+]1ccccc1 | > 200 µM | > 200 µM | 
C1=Cc2nc1c(-c1ccccc1)c1ccc([n-]1)c(-c1ccccc1)c1nc(c(-c3ccncc3)c3ccc([n-]3)c2-c2ccccc2)C=C1.C1=Cc2nc1c(-c1ccccc1)c1ccc([n-]1)c(-c1ccccc1)c1nc(c(-c3ccncc3)c3ccc([n-]3)c2-c2ccccc2)C=C1.C1=Cc2nc1c(-c1ccccc1)c1ccc([n-]1)c(-c1ccccc1)c1nc(c(-c3ccncc3)c3ccc([n-]3)c2-c2ccccc2)C=C1.C1=Cc2nc1c(-c1ccccc1)c1ccc([n-]1)c(-c1ccccc1)c1nc(c(-c3ccncc3)c3ccc([n-]3)c2-c2ccccc2)C=C1.O=S(=O)([O-])C(F)(F)F.[Pt+2].[Zn+2].[Zn+2].[Zn+2].[Zn+2] | > 25.1 µM | > 25.1 µM | 
CC(O)c1ccc[n+](Cc2ccccc2)c1 (centres undefined) | > 1000 µM | 776 µM | 
CN(C)CCC(CCN(C)C)=NO | > 955 µM | > 955 µM | 
Cc1c2ccccc2nc(CSc2ccccc2)[n+]1[O-] | 9.55 µM | 178 µM | 
CC1=CC(C)(C)NN1C1=NS(=O)(=O)c2ccccc2N1C | > 200 µM | > 200 µM | 
C/C(=N\NC(=S)N1CCN(c2ccccn2)CC1)c1nccs1 | > 145 µM | 0.646 µM | 
CCOC(=O)NC(OCc1ccccc1)(C(=O)OC)C(F)(F)F (centres undefined) | > 200 µM | > 200 µM | 
COc1ccc(C(=O)[O][Sn]([c]2ccccc2)([c]2ccccc2)[c]2ccccc2)c(OC)c1OC | > 2 µM | 0.11 µM | 
C=C1C(=O)OC(CCCCC)C1C(=O)O (centres undefined) |  |  | inactive
N#C[C@@H](c1ccccn1)c1ncccc1[N+](=O)[O-] | > 200 µM | > 200 µM | 
O=C(O)CC1Sc2ccccc2NC1=O (centres undefined) | > 1120 µM | > 1120 µM | 

SMILES | EC50 | IC50 | outcome
CC(=O)c1c(O)cc2c(c1O)C1CC(C)(CCC1=C(C)C)O2 (centres undefined) | > 186 µM | 26.3 µM | 
COc1ccc(/C=C/C(=O)c2ccccc2)cc1 | > 41.7 µM | 24.5 µM | 
COC(=O)C1(Cc2ccccc2)Cc2cc3c(cc2C1)CCC3 | > 200 µM | 60.3 µM | 
CC(=O)C1C(=O)C(=O)N(c2ccc([N+](=O)[O-])cc2Cl)C1=O (centres undefined) | > 200 µM | 95.5 µM | 
C[C@]12CC=CC(=O)[C@@]1(C)CCC(=O)C2 |  |  | inactive
CC(=O)Nc1ccc(C(O)/C(=N/N)c2nc3ccc(Cl)cc3[nH]c2=O)cc1 (centres undefined) | > 162 µM | > 162 µM | 
COc1ccc(N[C@H](CS(=O)c2ccc(C)cc2)C(F)(F)F)cc1 (some centres undefined) | > 200 µM | > 200 µM | 
O=C(Nc1ccc(Cl)cc1)C(=O)C(C(=O)c1ccccc1-c1ccccc1)C1OC(=O)c2ccccc21 (centres undefined) | > 70.8 µM | 13.2 µM | 
N#CC(C#N)=Cc1ccccc1[N+](=O)[O-] | > 302 µM | 15.1 µM | 
CC(C)=NNc1snnc1C(N)=O | > 200 µM | > 200 µM | 
C=C(C)C1CC[C@@](C)(O)[C@H](C#N)C1 (some centres undefined) | > 200 µM | > 200 µM | 
CC#N.CC#N.COC(=O)[C@@H]1CN(C(C)=O)C(=O)[N-]1.COC(=O)[C@@H]1CN(C(C)=O)C(=O)[N-]1.COC(=O)[C@@H]1CN(C(C)=O)C(=O)[N-]1.COC(=O)[C@@H]1CN(C(C)=O)C(=O)[N-]1.[Rh+2].[Rh+2] | > 200 µM | > 200 µM | 
O=c1[nH]nc(-c2ccccc2)n1/N=C/c1c(O)ccc2ccccc12 | > 200 µM | 112 µM | 
CCOc1ccc(N2C(=O)NC3(c4ccccc4)N(C)C(=O)N(C)C23c2ccccc2)cc1 (centres undefined) |  |  | inactive
CCOC(=O)c1cc(Br)c(-c2onc(C)c2Br)n1C | > 200 µM | 89.1 µM | 
Cc1[nH]c(-c2ccccc2)c2nc(N(C)C)oc(=O)c12 | > 200 µM | > 200 µM | 
CC(=O)C1CC2(c3ccccc3)C(=O)c3ccccc3N2O1 (centres undefined) | > 447 µM | 195 µM | 
N=c1nc(-c2ccccc2)nc2[nH]c3c4cccc5cccc(c3nc12)c54 | > 200 µM | 67.6 µM | 
COc1cc(O)c2c(c1)O[C@@H]1OCC[C@H]21 | > 1200 µM | 871 µM | 
Cc1cn(C2CC3C(COC(CC[Se]c4ccccc4)N3O)O2)c(=O)[nH]c1=O (centres undefined) | 24 µM | 158 µM | 
CC1SC(N)=NN=C1c1c(O)c2ccccc2oc1=O (centres undefined) | > 200 µM | 148 µM | 
Nc1ccc2c(O)cc(=O)[nH]c2n1 | > 200 µM | > 200 µM | 

SMILES | EC50 | IC50 | outcome
C/C(=N/NC(=S)N1CCCCCC1)c1ccccc1O | > 200 µM | 4.27 µM | 
CN1CCN(C2=C(Cl)C3(OCCS3)C(F)(F)C2(F)F)CC1 (centres undefined) | > 132 µM | 45.7 µM | 
Cc1ccc(/C=N/Nc2nc3ccccc3s2)s1 | > 200 µM | 67.6 µM | 
COc1ccc(C2C(Cl)C(=O)N2n2cnc3ccccc3c2=O)cc1 (centres undefined) | > 3.8 µM | > 3.8 µM | 
c1ccc(C(NC2=NCCO2)C2CC2)cc1 (centres undefined) | > 200 µM | 45.7 µM | 
N#C/C(C(=S)NCc1ccccc1)=C(/N)N1CCCC1 | > 200 µM | 148 µM | 
O=C(O)c1ccc(C(=O)c2ccccc2C(=O)O)cc1C(=O)O | 19.1 µM | > 200 µM | 
O=C(O)[C@@H]1CSC(c2cccc(F)c2)N1 (some centres undefined) | > 200 µM | > 200 µM | 
O=C(CC(O)(C(F)(F)F)C(F)(F)F)c1cccs1 | > 200 µM | > 200 µM | 
O=C(O)c1ccc(CS(=O)(=O)c2ccccc2)c([N+](=O)[O-])c1 | > 776 µM | 575 µM | 
CN(C)CCN(C)P12(Oc3ccccc3O1)Oc1c(Cl)c(Cl)c(Cl)c(Cl)c1O2 | > 43.7 µM | 24.5 µM | 
CC1(C)N([O-])[N+](=O)C1(Br)c1ccccc1 (centres undefined) | > 200 µM | 145 µM | 
N#Cc1ccccc1NC(=O)C(=O)C(C(=O)c1ccncc1)C1OC(=O)c2ccccc21 (centres undefined) | > 589 µM | > 589 µM | 
Cc1cc(=O)oc2cc3c(cc12)CCCN3 | > 33.9 µM | > 33.9 µM | 
COc1cc(-c2ccc(N=Nc3cc4cc(S(=O)(=O)O)ccc4cc3O)c(OC)c2)ccc1N=Nc1cc2cc(S(=O)(=O)O)ccc2cc1O | 17.4 µM | 120 µM | 
COc1ccc(OC)c(/C=C2\C=Cc3ccccc32)c1 | > 38 µM | 6.46 µM | 
COc1ccc(C2=NNC(=O)CC2)cc1OC | > 1070 µM | 550 µM | 
C[C@]12CC[C@H](O)CC1=CC[C@@H]1C2CC[C@]2(C)Nc3c(cnn3-c3ccccc3)CC12 (some centres undefined) |  |  | inactive
N#CC(C#N)=Cc1cccc([N+](=O)[O-])c1 | > 178 µM | 15.5 µM | 
O=c1n(-c2ccccc2)c(=O)n2n1C1/C=C\C=C/C2C2CCC21 (centres undefined) | > 200 µM | > 200 µM | 
COc1cccc(/C=C2/Sc3sc(C(C)=O)c(C)[n+]3C2=O)c1O | > 89.1 µM | 34.7 µM | 
O=c1nc(NC2CCCCO2)ccn1CCO (centres undefined) | > 1050 µM | > 1050 µM | 

SMILES | EC50 | IC50 | outcome
NNC(=O)N/N=C1\CNC(=O)C(=O)C1c1nc2ccccc2s1 (centres undefined) |  |  | inactive
CC1(C)OC2C(=O)O[C@H](CO)C2O1 (some centres undefined) | > 200 µM | > 200 µM | 
COc1ccc(-n2cccc2)cc1 | > 200 µM | > 200 µM | 
CC(c1ccccc1)N1CC(=O)N([C@H](C)c2ccccc2)C1=O (some centres undefined) | > 200 µM | > 200 µM | 
CC(=O)Oc1c(OC(C)C)c(C)c(O[Si](C(C)C)(C(C)C)C(C)C)c2[nH]c3ccccc3c12 | > 100 µM | 13.5 µM | 
Cc1ccc([P+](Cc2ccccc2)(c2ccc(C)cc2)c2ccc(C)cc2)cc1 | > 200 µM | 0.851 µM | 
c1csc(-c2ccc(-c3ccc(-c4cccs4)s3)s2)c1 | > 200 µM | > 200 µM | 
C=C1SC(=Nc2ccccc2Cl)N(C(=O)c2sc3ccccc3c2Cl)C1(C)C | > 25.1 µM | 11.5 µM | 
O=C1CC(c2c[nH]c3ccccc23)C(=O)N1c1ccccc1 (centres undefined) |  |  | inactive
NC(N)=NNC(=O)CCCCCCCC(=O)NN=C(N)N | 537 µM | 676 µM | 
CC1=C(/C=C/C(C)=C/C=C/C(C)=C/C=C/C=C(C)/C=C/C=C(C)/C=C/C=C(C)/C=C/C=C(\C)C(=O)O)C(C)(C)CCC1 | > 4.79 µM | > 4.79 µM | 
CSc1nncc2[nH]c(C)nc12 | > 200 µM | > 200 µM | 
c1csc(-c2ccc(-c3ccsc3)s2)c1 | > 200 µM | > 200 µM | 
CC1(C)CC(=O)C(/C=N/C(=S)Nc2ccc(S(N)(=O)=O)cc2)=C(O)C1 | > 200 µM | > 200 µM | 
CCOC(=O)/C(I)=C/c1cc(OC)c(OC)c(OC)c1 | > 141 µM | 85.1 µM | 
Cc1nc(-[n+]2nc(-c3ccncc3)nn2-c2ccccc2)sc1C | > 200 µM | 17 µM | 
CC(c1ccccc1)N1OC1(c1ccccc1)c1ccccc1 (centres undefined) | > 105 µM | 14.5 µM | 
C[C@]12CC[C@@H](O)C[C@H]1CC[C@@H]1[C@@H]2[C@@H](O)C[C@@]2(C)[C@H]1CC[C@]2(O)[C@@H](O)CO | > 200 µM | > 200 µM | 
CC(=O)OCC1OC(n2c(-c3ccc(Cl)cc3)ccc(C#N)c2=S)C(OC(C)=O)C(OC(C)=O)C1OC(C)=O (centres undefined) | > 200 µM | > 200 µM | 
Nc1ncnc2c1ncn2C1CCC(COS(N)(=O)=O)C1 (centres undefined) | > 200 µM | > 200 µM | 
